From the NIST ThermoML archive (doi:10.1016/j.jct.2007.04.005)
Numbers after ± are expanded uncertainties.

Assay: xn = mol fraction of the nth substance listed
Settings: 308.15 K, Liquid

CCCCCCCCC [nonane] + C1CCCCC1
mass density [kg/m3]
Settings | x2 = 0 | x2 = 0.09303 | x2 = 0.2009 | x2 = 0.3051 | x2 = 0.417 | x2 = 0.512 | x2 = 0.5996 | x2 = 0.7052 | x2 = 0.7993 | x2 = 0.9039
18340 kPa | – | – | – | – | – | – | – | 752.9 ± 1.2 | 760 ± 1.2 | 769.1 ± 1.2
20370 kPa | 721.7 ± 1.5 | 724.7 ± 1.5 | 728.6 ± 1.5 | 732.8 ± 1.5 | 737.8 ± 1.4 | 742.4 ± 1.4 | 747.6 ± 1.4 | 754.4 ± 1.3 | 761.5 ± 1.3 | 770.6 ± 1.2
22390 kPa | 723.1 ± 1.6 | 726.1 ± 1.6 | 730.1 ± 1.6 | 734.3 ± 1.5 | 739.3 ± 1.5 | 743.9 ± 1.5 | 749.1 ± 1.4 | 755.9 ± 1.4 | 763 ± 1.3 | 772.1 ± 1.3
24420 kPa | 724.5 ± 1.7 | 727.5 ± 1.7 | 731.5 ± 1.6 | 735.7 ± 1.6 | 740.7 ± 1.6 | 745.3 ± 1.5 | 750.5 ± 1.5 | 757.4 ± 1.5 | 764.4 ± 1.4 | 773.6 ± 1.4
26450 kPa | 725.9 ± 1.8 | 728.9 ± 1.8 | 732.9 ± 1.7 | 737.1 ± 1.7 | 742.1 ± 1.6 | 746.8 ± 1.6 | 751.9 ± 1.6 | 758.8 ± 1.5 | 765.8 ± 1.5 | 775.1 ± 1.4
28470 kPa | 727.2 ± 1.9 | 730.3 ± 1.8 | 734.2 ± 1.8 | 738.4 ± 1.8 | 743.5 ± 1.7 | 748.1 ± 1.7 | 753.3 ± 1.6 | 760.2 ± 1.6 | 767.2 ± 1.5 | 776.5 ± 1.5
29490 kPa | 727.8 ± 1.9 | 730.9 ± 1.9 | 734.9 ± 1.8 | 739.1 ± 1.8 | 744.1 ± 1.7 | 748.7 ± 1.7 | 754 ± 1.7 | 760.9 ± 1.6 | 767.9 ± 1.6 | 777.2 ± 1.5
30500 kPa | 728.5 ± 1.9 | 731.6 ± 1.9 | 735.6 ± 1.9 | 739.8 ± 1.8 | 744.8 ± 1.8 | 749.4 ± 1.7 | 754.7 ± 1.7 | 761.6 ± 1.7 | 768.6 ± 1.6 | 777.9 ± 1.5
32530 kPa | 729.8 ± 2 | 732.9 ± 2 | 736.9 ± 1.9 | 741.1 ± 1.9 | 746.1 ± 1.9 | 750.8 ± 1.8 | 756 ± 1.8 | 762.9 ± 1.7 | 770 ± 1.7 | 779.3 ± 1.6
34550 kPa | 731.1 ± 2.1 | 734.2 ± 2.1 | 738.2 ± 2 | 742.4 ± 2 | 747.4 ± 1.9 | 752 ± 1.9 | 757.3 ± 1.8 | 764.3 ± 1.8 | 771.3 ± 1.7 | 780.6 ± 1.7
36580 kPa | 732.4 ± 2.2 | 735.4 ± 2.1 | 739.5 ± 2.1 | 743.7 ± 2 | 748.7 ± 2 | 753.3 ± 2 | 758.6 ± 1.9 | 765.6 ± 1.9 | 772.6 ± 1.8 | 781.9 ± 1.7
38600 kPa | 733.6 ± 2.2 | 736.7 ± 2.2 | 740.8 ± 2.2 | 745 ± 2.1 | 750 ± 2.1 | 754.6 ± 2 | 759.9 ± 2 | 766.9 ± 1.9 | 773.9 ± 1.9 | 783.3 ± 1.8
39620 kPa | 734.3 ± 2.3 | 737.4 ± 2.2 | 741.4 ± 2.2 | 745.6 ± 2.2 | 750.6 ± 2.1 | 755.3 ± 2.1 | 760.6 ± 2 | 767.5 ± 1.9 | 774.5 ± 1.9 | 783.9 ± 1.8
